Legend:
late watergrass = assay: Test Example 1: herbicidal activity, application before weed generation under submerged conditions (Table 16, symbol A); assay type: in vivo, late watergrass (Echinochloa oryzicola); conditions: 320 g/ha applied herbicide
In short: (§1)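 Emulsion formulation, water-diluted to set dose, was put onto the flooded surface (4 cm depth, alluvial soil) the same day weeds were sown and 2.5-leaf rice transplanted. After 3 weeks at 25-30 °C under glass, each species was rated 0 (≤5% kill) to 5 (≥90% kill).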

Japanese bulrush = assay: Test Example 1: herbicidal activity, application before weed generation under submerged conditions (Table 16, symbol B); assay type: in vivo, Japanese bulrush (Schoenoplectus juncoides); conditions: 320 g/ha applied herbicide
In short: as §1

oval-leafed pondweed = assay: Test Example 1: herbicidal activity, application before weed generation under submerged conditions (Table 16, symbol C); assay type: in vivo, oval-leafed pondweed (Monochoria vaginalis); conditions: 320 g/ha applied herbicide
In short: as §1

barnyard grass [1] = assay: Test Example 3: herbicidal effect by foliage application, Wagner pot (Table 18, symbol H); assay type: in vivo, barnyard grass (Echinochloa crus-galli); conditions: amount of applied herbicide 320 g/ha
In short: (§2)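 Plants were sown in alluvial soil held under 0.1–0.5 cm standing water and grown 14 days in a greenhouse at 25–30 °C. An emulsifiable formulation, water-diluted to the set dose, was then sprayed onto the foliage, and effects were scored three weeks later using previously defined criteria.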

Chinese sprangletop = assay: Test Example 3: herbicidal effect by foliage application, Wagner pot (Table 18, symbol D); assay type: in vivo, chinese sprangletop (Leptochloa chinensis); conditions: amount of applied herbicide 320 g/ha
In short: as §2

rice flat sedge = assay: Test Example 3: herbicidal effect by foliage application, Wagner pot (Table 18, symbol E); assay type: in vivo, rice flat sedge (Cyperus iria); conditions: amount of applied herbicide 320 g/ha
In short: as §2

southern crabgrass [2] = assay: Test Example 4: herbicidal effect by soil treatment (Table 19, symbol F); assay type: in vivo, southern crabgrass (Digitaria ciliaris); conditions: amount of applied herbicide 320 g/ha
In short: (§3)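 In this soil treatment, the formulated compound reached the seeds only through the soil: seeds were buried about 1.5 cm deep in sterilized diluvial soil, then the diluted emulsion was sprayed over the surface. After three weeks at 25° C. to 30° C. in a greenhouse, effects were graded on criteria from an earlier test.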

green foxtail [3] = assay: Test Example 4: herbicidal effect by soil treatment (Table 19, symbol G); assay type: in vivo, green foxtail (Setaria viridis); conditions: amount of applied herbicide 320 g/ha
In short: as §3

barnyard grass [4] = assay: Test Example 4: herbicidal effect by soil treatment (Table 19, symbol H); assay type: in vivo, barnyard grass (Echinochloa crus-galli); conditions: amount of applied herbicide 320 g/ha
In short: as §3

wild oat [5] = assay: Test Example 4: herbicidal effect by soil treatment (Table 19, symbol I); assay type: in vivo, wild oat (Avena fatua); conditions: amount of applied herbicide 320 g/ha
In short: as §3

blackgrass [6] = assay: Test Example 4: herbicidal effect by soil treatment (Table 19, symbol J); assay type: in vivo, blackgrass (Alopecurus myosuroides); conditions: amount of applied herbicide 320 g/ha
In short: as §3

Italian ryegrass [7] = assay: Test Example 4: herbicidal effect by soil treatment (Table 19, symbol K); assay type: in vivo, Italian ryegrass (Lolium multiflorum); conditions: amount of applied herbicide 320 g/ha
In short: as §3

windgrass [8] = assay: Test Example 4: herbicidal effect by soil treatment (Table 19, symbol L); assay type: in vivo, windgrass (Apera spica-venti); conditions: amount of applied herbicide 320 g/ha
In short: as §3

velvetleaf [9] = assay: Test Example 4: herbicidal effect by soil treatment (Table 19, symbol M); assay type: in vivo, velvetleaf (Abutilon theophrasti); conditions: amount of applied herbicide 320 g/ha
In short: as §3

redroot pigweed [10] = assay: Test Example 4: herbicidal effect by soil treatment (Table 19, symbol N); assay type: in vivo, redroot pigweed (Amaranthus retroflexus); conditions: amount of applied herbicide 320 g/ha
In short: as §3

lambsquarters [11] = assay: Test Example 4: herbicidal effect by soil treatment (Table 19, symbol O); assay type: in vivo, lambsquarters (Chenopodium album); conditions: amount of applied herbicide 320 g/ha
In short: as §3

chickweed [12] = assay: Test Example 4: herbicidal effect by soil treatment (Table 19, symbol P); assay type: in vivo, common chickweed (Stellaria media); conditions: amount of applied herbicide 320 g/ha
In short: as §3

persian speedwell [13] = assay: Test Example 4: herbicidal effect by soil treatment (Table 19, symbol R); assay type: in vivo, Persian speedwell (Veronica persica); conditions: amount of applied herbicide 320 g/ha
In short: as §3

southern crabgrass [14] = assay: Test Example 5: herbicidal effect by foliage application, plastic box (Table 20, symbol F); assay type: in vivo, southern crabgrass (Digitaria ciliaris); conditions: foliage application, 320 g/ha, evaluated three weeks after application
In short: (§4)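 Plants were sown into sterilized diluvial soil under about 1.5 cm cover and kept in a greenhouse at 25° C. to 30° C. Fourteen days on, foliage received an even spray of the diluted emulsion. Herbicidal or crop effect was judged three weeks afterwards.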

green foxtail [15] = assay: Test Example 5: herbicidal effect by foliage application, plastic box (Table 20, symbol G); assay type: in vivo, green foxtail (Setaria viridis); conditions: foliage application, 320 g/ha, evaluated three weeks after application
In short: as §4

barnyard grass [16] = assay: Test Example 5: herbicidal effect by foliage application, plastic box (Table 20, symbol H); assay type: in vivo, barnyard grass (Echinochloa crus-galli); conditions: foliage application, 320 g/ha, evaluated three weeks after application
In short: as §4

wild oat [17] = assay: Test Example 5: herbicidal effect by foliage application, plastic box (Table 20, symbol I); assay type: in vivo, wild oat (Avena fatua); conditions: foliage application, 320 g/ha, evaluated three weeks after application
In short: as §4

blackgrass [18] = assay: Test Example 5: herbicidal effect by foliage application, plastic box (Table 20, symbol J); assay type: in vivo, blackgrass (Alopecurus myosuroides); conditions: foliage application, 320 g/ha, evaluated three weeks after application
In short: as §4

Italian ryegrass [19] = assay: Test Example 5: herbicidal effect by foliage application, plastic box (Table 20, symbol K); assay type: in vivo, Italian ryegrass (Lolium multiflorum); conditions: foliage application, 320 g/ha, evaluated three weeks after application
In short: as §4

windgrass [20] = assay: Test Example 5: herbicidal effect by foliage application, plastic box (Table 20, symbol L); assay type: in vivo, windgrass (Apera spica-venti); conditions: foliage application, 320 g/ha, evaluated three weeks after application
In short: as §4

velvetleaf [21] = assay: Test Example 5: herbicidal effect by foliage application, plastic box (Table 20, symbol M); assay type: in vivo, velvetleaf (Abutilon theophrasti); conditions: foliage application, 320 g/ha, evaluated three weeks after application
In short: as §4

redroot pigweed [22] = assay: Test Example 5: herbicidal effect by foliage application, plastic box (Table 20, symbol N); assay type: in vivo, redroot pigweed (Amaranthus retroflexus); conditions: foliage application, 320 g/ha, evaluated three weeks after application
In short: as §4

lambsquarters [23] = assay: Test Example 5: herbicidal effect by foliage application, plastic box (Table 20, symbol O); assay type: in vivo, lambsquarters (Chenopodium album); conditions: foliage application, 320 g/ha, evaluated three weeks after application
In short: as §4

chickweed [24] = assay: Test Example 5: herbicidal effect by foliage application, plastic box (Table 20, symbol P); assay type: in vivo, common chickweed (Stellaria media); conditions: foliage application, 320 g/ha, evaluated three weeks after application
In short: as §4

persian speedwell [25] = assay: Test Example 5: herbicidal effect by foliage application, plastic box (Table 20, symbol R); assay type: in vivo, Persian speedwell (Veronica persica); conditions: foliage application, 320 g/ha, evaluated three weeks after application
In short: as §4

SMILES | Herbicidal effect on A: late watergrass (grade 0-5) (late watergrass) | Herbicidal effect on B: Japanese bulrush (grade 0-5) (Japanese bulrush) | Herbicidal effect on C: oval-leafed pondweed (grade 0-5) (oval-leafed pondweed) | herbicidal effect on H: barnyard grass (barnyard grass [1]) | herbicidal effect on D: Chinese sprangletop (Chinese sprangletop) | herbicidal effect on E: rice flat sedge (rice flat sedge) | F: southern crabgrass, herbicidal effect rating (southern crabgrass [2]) | G: green foxtail, herbicidal effect rating (green foxtail [3]) | H: barnyard grass, herbicidal effect rating (barnyard grass [4]) | I: wild oat, herbicidal effect rating (wild oat [5]) | J: blackgrass, herbicidal effect rating (blackgrass [6]) | K: Italian ryegrass, herbicidal effect rating (Italian ryegrass [7]) | L: windgrass, herbicidal effect rating (windgrass [8]) | M: velvetleaf, herbicidal effect rating (velvetleaf [9]) | N: redroot pigweed, herbicidal effect rating (redroot pigweed [10]) | O: lambsquarters, herbicidal effect rating (lambsquarters [11]) | P: chickweed, herbicidal effect rating (chickweed [12]) | R: persian speedwell, herbicidal effect rating (persian speedwell [13]) | herbicidal effect on F: southern crabgrass (southern crabgrass [14]) | herbicidal effect on G: green foxtail (green foxtail [15]) | further results
CCCCOc1ccc(-c2sc3ccc(Cl)cc3c2-c2c(O)c(C)nn(C)c2=O)cc1 [2-109] | 0 (Herbicidal rate of 5% or less (almost no effect)) | 3 (Herbicidal rate of 40% or more and less than 70%) | 0 (Herbicidal rate of 5% or less (almost no effect)) | 4 (Herbicidal rate of 70% or more and less than 90%) | 2 (Herbicidal rate of 20% or more and less than 40%) | 2 (Herbicidal rate of 20% or more and less than 40%) | 0 (Herbicidal rate of 5% or less (almost no effect)) | 0 (Herbicidal rate of 5% or less (almost no effect)) | 0 (Herbicidal rate of 5% or less (almost no effect)) | 0 (Herbicidal rate of 5% or less (almost no effect)) | 0 (Herbicidal rate of 5% or less (almost no effect)) | 0 (Herbicidal rate of 5% or less (almost no effect)) | 0 (Herbicidal rate of 5% or less (almost no effect)) | 1 (Herbicidal rate of 5% or more and less than 20%) | 4 (Herbicidal rate of 70% or more and less than 90%) | 2 (Herbicidal rate of 20% or more and less than 40%) | 0 (Herbicidal rate of 5% or less (almost no effect)) | 3 (Herbicidal rate of 40% or more and less than 70%) | 0 (Herbicidal rate of 5% or less (almost no effect)) | 1 (Herbicidal rate of 5% or more and less than 20%) | herbicidal effect on H: barnyard grass (barnyard grass [16]): 4 (Herbicidal rate of 70% or more and less than 90%); herbicidal effect on I: wild oat (wild oat [17]): 0 (Herbicidal rate of 5% or less (almost no effect)); herbicidal effect on J: blackgrass (blackgrass [18]): 0 (Herbicidal rate of 5% or less (almost no effect)); herbicidal effect on K: Italian ryegrass (Italian ryegrass [19]): 0 (Herbicidal rate of 5% or less (almost no effect)); herbicidal effect on L: windgrass (windgrass [20]): 0 (Herbicidal rate of 5% or less (almost no effect)); herbicidal effect on M: velvetleaf (velvetleaf [21]): 4 (Herbicidal rate of 70% or more and less than 90%); herbicidal effect on N: redroot pigweed (redroot pigweed [22]): 5 (Herbicidal rate of 90% or more (almost completely withered)); herbicidal effect on O: lambsquarters (lambsquarters [23]): 4 (Herbicidal rate of 70% or more and less than 90%); herbicidal effect on P: chickweed (chickweed [24]): 4 (Herbicidal rate of 70% or more and less than 90%); herbicidal effect on R: persian speedwell (persian speedwell [25]): 5 (Herbicidal rate of 90% or more (almost completely withered))
COc1ccccc1-c1sc2ccc(I)cc2c1-c1c(O)c(C)nn(C)c1=O [2-130] | 0 (Herbicidal rate of 5% or less (almost no effect)) | 3 (Herbicidal rate of 40% or more and less than 70%) | 0 (Herbicidal rate of 5% or less (almost no effect)) | 3 (Herbicidal rate of 40% or more and less than 70%) | 0 (Herbicidal rate of 5% or less (almost no effect)) | 4 (Herbicidal rate of 70% or more and less than 90%) | 0 (Herbicidal rate of 5% or less (almost no effect)) | 0 (Herbicidal rate of 5% or less (almost no effect)) | 0 (Herbicidal rate of 5% or less (almost no effect)) | 0 (Herbicidal rate of 5% or less (almost no effect)) | 0 (Herbicidal rate of 5% or less (almost no effect)) | 0 (Herbicidal rate of 5% or less (almost no effect)) | 0 (Herbicidal rate of 5% or less (almost no effect)) | 0 (Herbicidal rate of 5% or less (almost no effect)) | 2 (Herbicidal rate of 20% or more and less than 40%) | 3 (Herbicidal rate of 40% or more and less than 70%) | 0 (Herbicidal rate of 5% or less (almost no effect)) | 0 (Herbicidal rate of 5% or less (almost no effect)) | 0 (Herbicidal rate of 5% or less (almost no effect)) | 0 (Herbicidal rate of 5% or less (almost no effect)) | herbicidal effect on H: barnyard grass (barnyard grass [16]): 0 (Herbicidal rate of 5% or less (almost no effect)); herbicidal effect on I: wild oat (wild oat [17]): 0 (Herbicidal rate of 5% or less (almost no effect)); herbicidal effect on J: blackgrass (blackgrass [18]): 0 (Herbicidal rate of 5% or less (almost no effect)); herbicidal effect on K: Italian ryegrass (Italian ryegrass [19]): 0 (Herbicidal rate of 5% or less (almost no effect)); herbicidal effect on L: windgrass (windgrass [20]): 0 (Herbicidal rate of 5% or less (almost no effect)); herbicidal effect on M: velvetleaf (velvetleaf [21]): 3 (Herbicidal rate of 40% or more and less than 70%); herbicidal effect on N: redroot pigweed (redroot pigweed [22]): 5 (Herbicidal rate of 90% or more (almost completely withered)); herbicidal effect on O: lambsquarters (lambsquarters [23]): 2 (Herbicidal rate of 20% or more and less than 40%); herbicidal effect on P: chickweed (chickweed [24]): 5 (Herbicidal rate of 90% or more (almost completely withered)); herbicidal effect on R: persian speedwell (persian speedwell [25]): 3 (Herbicidal rate of 40% or more and less than 70%)

— patent US20230085307A1, “PYRIDAZINONE COMPOUND AND HERBICIDE” (NISSAN CHEMICAL CORPORATION, priority 2019, published 2023)
